Results on eleven compounds are retold here after PubChem BioAssay (NCI).

Holding throughout (experiment): NCI-60 cell line screen, 48 h
Assay [1] has as its system A549 NSCLC.
The test system of assay [2] is DU-145 prostate.
Assay [3] concerns HCT-15 colon.
For assay [4], the system named is HT29 colon.
Assay [5] relates to KM12 colon.
Assay [6] concerns MOLT-4 leukemia.
In assay [7] the test system is SK-MEL-2 melanoma.
In assay [8] the test system is SN12C renal.
Assay [9] has as its system SW-620 colon.
In assay [10] the test system is SK-OV-3 ovarian.

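Values below derive from 48-hour exposures of cells grown in 96-well plates, with endpoints linearly interpolated between the two concentrations bracketing the appropriate inhibition level. Abbreviation: GI50, concentration required for 50% inhibition of growth. At the TGI there is no net growth.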

For the compound `CC(=O)O[C@@H]1CO[C@H]2O[C@H]3[C@@H](C(C=O)=C[C@H](O)[C@@H]4C5=C(C(C)C)CC[C@]5(C)CC[C@@]34C)[C@@]2(O)C1=O`, the TGI in assay [1] came out at 5.57 µM; in assay [2], 2.02 µM; in [3] it was 0.687 µM; in assay [4], 0.471 µM; in assay [5], 1.46 µM; in [6] it was 0.28 µM. For the same compound, the TGI in assay [7] turned out to be 0.596 µM; in [8], 0.448 µM; in assay [9], 0.213 µM.

Consider `COc1ccc2[nH]cc(-c3nc(-c4cn(C)c5ccncc45)cs3)c2c1`, for which the GI50 is 1790 nM in assay [1]; 1700 nM in assay [2]; 1880 nM in [3]; 1530 nM in assay [4]; 1870 nM in assay [5]; 15800 nM in [7]. For the same compound, the GI50 was 19.4 µM in [10], 1640 nM in [8] and 1950 nM in [9]. Further, the TGI in [1] amounted to 3.43 µM; in assay [2], 3.11 µM; in assay [3] it was 3.92 µM; in assay [4], 3.33 µM; in [5], 3.52 µM; in assay [7], 30.1 µM. The TGI in assay [10] came out at 33.7 µM; in assay [8], 3.08 µM; in [9] it was 3.81 µM.

Consider `O=S1(=O)CCN(Cc2ccccn2)CC1`, for which the TGI in assay [1], in assay [2], in [3], in assay [4], in assay [5] and in [7] was more than 100 µM each time. The TGI in [10], in assay [8] and in [9] was more than 100 µM each time.

`COc1cc(OC)c2c(=O)c(O)c(-c3ccc(OC)c(OC)c3)oc2c1`: the TGI in assay [1] is more than 100 µM; in assay [2], more than 100 µM; in assay [3], more than 100 µM; in assay [4], more than 100 µM; in [5], more than 100 µM; in assay [6] it was 9.61 µM. Moreover, the TGI in [10], in assay [8] and in assay [9] was more than 100 µM each time.

On to `Brc1ccc([I+]c2ccc(Br)cc2)cc1`, for which the GI50 is 5200 nM in [1]; 3600 nM in [2]; 8300 nM in [3]; 535 nM in [4]; 1290 nM in assay [5]; 1360 nM in assay [7]. The GI50 in [10] is 1.5 µM; in assay [8] it was 1600 nM; in assay [9], 992 nM. For the same compound, the TGI in assay [1] worked out at 20.2 µM; in [2], 16.6 µM; in assay [3], 42.7 µM; in [4] it was 3.16 µM; in assay [5], 2.89 µM; in assay [7] it was 3.09 µM. Moreover, the values for the TGI in assay [10], in assay [8] and in assay [9] were 3.12 µM, 4.26 µM and 4.31 µM, respectively.

For the compound `Nc1ccc2c(c1)C(=O)c1c(F)cccc1-2`, the TGI in assay [1], in [2], in [3], in assay [4], in assay [5] and in [7] was more than 100 µM in each case. Also, the TGI in assay [10], in [8] and in assay [9] was more than 100 µM in each case.

Regarding `O=C1Nc2ccccc2C1Cc1ccccc1` (stereo unspecified), the TGI in assay [1], in assay [2], in assay [3], in assay [4], in assay [5] and in assay [6] was more than 100 µM throughout. The TGI in assay [7], in assay [10] and in [9] was more than 100 µM in each case.

As to `COC(CCP(=O)(c1ccccc1)c1ccccc1)(C(=O)c1ccccc1)c1ccccc1` (stereo unspecified), the GI50 in assay [1] is 3770 nM; in [2], 12000 nM; in [3] it was 3190 nM; in [4] it was 4650 nM; in assay [5], 3060 nM; in assay [6], 2060 nM. The figures for the GI50 in [10], in [8] and in [9] were 8.05 µM, 5230 nM and 3860 nM, respectively. For the same compound, the TGI in [1] was 16.5 µM; in [2] it was 24.3 µM; in assay [3] it was 13.6 µM; in [4], 19.1 µM; in [5], 13.4 µM; in [6], more than 100 µM. Besides, the values for the TGI in assay [10], in assay [8] and in assay [9] were 21.8 µM, 20 µM and 15.7 µM, respectively.

As to `COc1ccc2c3c1C(=O)CCC3CO2` (stereo unspecified), the TGI in [1], in [3], in [4], in assay [5], in [6] and in assay [7] was more than 100 µM in each case. Also, the TGI in assay [10], in assay [8] and in [9] was more than 100 µM in each case.

As to `CC(=O)N1CC2Nc3ccccc3C2CC1CO` (stereo unspecified), the TGI in [1], in assay [3], in [4], in assay [5], in assay [6] and in [7] was more than 100 µM each time. Further, the TGI in assay [10], in [8] and in assay [9] was more than 100 µM in each case.

Consider `COc1cnc2c(c1)C(=O)c1c-2n(CCCn2ccnc2)c(=O)c2cc(Cl)ccc12`, for which the GI50 is 66.3 nM in [1]; 43.2 nM in assay [2]; 159 nM in assay [3]; 238 nM in assay [5]; 574 nM in [7]; 0.0403 µM in [10]. Also, the GI50 in assay [9] is 26.2 nM. The TGI in [1] was more than 100 µM; in assay [2] it was more than 100 µM; in assay [3] it was more than 100 µM; in assay [5], more than 100 µM; in assay [7], 14.3 µM; in assay [10] it was 0.303 µM. The compound further registered a TGI in assay [9] of more than 100 µM.
